Like-named read-outs stand apart in the source and are kept apart here.
Target: Human Factor D (Homo sapiens (Human), UniProt P00746)
Test: Human Factor D Assay
Format: biochemical
Outline: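 Serum-purified human Factor D (80 nM final) was preincubated with test compound at various concentrations for 5 min at room temperature in 50 mM Tris, 1M NaCl, pH 7.5. Z-L-Lys-SBzl and DTNB were then added at 100 μM each. IC50 came from nonlinear regression of reaction rates versus compound concentration.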

[1] = Human Factor D assay of Example 8, Table 2, read-out: IC50
[2] = Table 3, Human Factor D 80 nM, substrate Z-L-Lys-SBzl, read-out: IC50 (Stars)

Human Factor D, sequence (P00746 26-253): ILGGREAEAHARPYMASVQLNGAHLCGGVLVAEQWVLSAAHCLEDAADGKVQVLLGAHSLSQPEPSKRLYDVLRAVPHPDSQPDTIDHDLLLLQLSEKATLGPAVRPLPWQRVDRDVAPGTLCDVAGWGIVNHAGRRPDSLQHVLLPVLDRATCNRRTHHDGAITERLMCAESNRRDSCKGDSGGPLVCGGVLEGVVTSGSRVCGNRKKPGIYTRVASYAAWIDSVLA

Row | SMILES | IC50 [1] [nM] | IC50 [2] [nM]
1 | CC(=O)c1nn(CC(=O)N2C[C@H](F)C[C@H]2C(=O)Nc2cncc(Br)n2)c2ccc(-c3cnc(C)nc3)cc12 [Compound 317, (2S,4R)-1-(2-(3-acetyl-5-(2-methylpyrimidin-5-yl)-1H-indazol-1-yl)acetyl)-N-(6-bromopyrazin-2-yl)-4-fluoropyrrolidine-2-carboxamide] | < 1000 | 
2 | COc1cc2c(cc1-c1cnc(C)nc1)c(C(C)=O)cn2CC(=O)N1C[C@H](F)C[C@H]1C(=O)Nc1cccc(-c2ccccc2Cl)c1F [Compound 318, (2S,4R)-1-(2-(3-Acetyl-6-methoxy-5-(2-methylpyrimidin-5-yl)-1H-indol-1-yl)acetyl)-N-(2′-chloro-2-fluoro-[1,1′-biphenyl]-3-yl)-4-fluoropyrrolidine-2-carboxamide] | < 1000 | 
3 | COc1cc2c(cc1-c1cnc(C)nc1)c(C(C)=O)cn2CC(=O)N1C[C@H](F)C[C@H]1C(=O)Nc1cccc(Br)n1 [Compound 319, (2S,4R)-1-(2-(3-Acetyl-6-methoxy-5-(2-methylpyrimidin-5-yl)-1H-indol-1-yl)acetyl)-N-(6-bromopyridin-2-yl)-4-fluoropyrrolidine-2-carboxamide] | < 1000 | 
4 | CC(=O)c1cn(CC(=O)N2C[C@H](F)C[C@H]2C(=O)Nc2cccc(-c3ccccc3Cl)c2F)c2cc(O)c(-c3cnc(C)nc3)cc12 [Compound 320, (4R)-1-(2-(3-Acetyl-6-hydroxy-5-(2-methylpyrimidin-5-yl)-1H-indol-1-yl)acetyl)-N-(2′-chloro-2-fluoro-[1,1′-biphenyl]-3-yl)-4-fluoropyrrolidine-2-carboxamide] | < 1000 | 
5 | CC(=O)c1nn(CC(=O)N2C[C@H](F)C[C@H]2C(=O)Nc2cccc(Br)n2)c2ccc(-c3cnc4nc(C)ccn34)cc12 [Compound 321, (2S,4R)-1-(2-(3-acetyl-5-(7-methylimidazo[1,2-a]pyrimidin-3-yl)-1H-indazol-1-yl)acetyl)-N-(6-bromopyridin-2-yl)-4-fluoropyrrolidine-2-carboxamide] | < 1000 | 
6 | CC(=O)c1nn(CC(=O)N2C[C@H](F)C[C@H]2C(=O)Nc2cncc(Br)n2)c2ccc(-c3cnc4ccnn4c3)cc12 [Compound 322, (2S,4R)-1-(2-(3-acetyl-5-(pyrazolo[1,5-a]pyrimidin-6-yl)-1H-indazol-1-yl)acetyl)-N-(6-bromopyrazin-2-yl)-4-fluoropyrrolidine-2-carboxamide] | < 1000 | 
7 | CC(=O)c1cn(CC(=O)N2C[C@H](F)C[C@H]2C(=O)Nc2cncc(Br)n2)c2ccc(-c3cnc4ccnn4c3)cc12 [Compound 323, (2S,4R)-1-(2-(3-acetyl-5-(pyrazolo[1,5-a]pyrimidin-6-yl)-1H-indol-1-yl)acetyl)-N-(6-bromopyrazin-2-yl)-4-fluoropyrrolidine-2-carboxamide] | < 1000 | 
8 | CC(=O)c1nn(CC(=O)N2[C@@H]3C[C@@H]3C[C@H]2C(=O)Nc2cncc(Br)n2)c2ccc(-c3cnc4cc(C)nn4c3)cc12 [Compound 324, (1R,3S,5R)-2-(2-(3-acetyl-5-(2-methylpyrazolo[1,5-a]pyrimidin-6-yl)-1H-indazol-1-yl)acetyl)-N-(6-bromopyrazin-2-yl)-2-azabicyclo[3.1.0] hexane-3-carboxamide] | < 1000 | 
9 | CC(=O)c1nn(CC(=O)N2C[C@H](F)C[C@H]2C(=O)Nc2cncc(Br)n2)c2ccc(-c3ccc4nc(C)nn4c3)cc12 [Compound 325, (2S,4R)-1-(2-(3-acetyl-5-(2-methyl-[1,2,4]triazolo[1,5-a]pyridin-6-yl)-1H-indazol-1-yl)acetyl)-N-(6-bromopyrazin-2-yl)-4-fluoropyrrolidine-2-carboxamide] | < 1000 | 
10 | CC(=O)c1nn(CC(=O)N2C[C@H](F)C[C@H]2C(=O)Nc2cccc(-c3sccc3Cl)c2F)c2ccc(-c3cnc(C)nc3)cc12 [Compound 327, (2S,4R)-1-(2-(3-acetyl-5-(2-methylpyrimidin-5-yl)-1H-indazol-1-yl)acetyl)-N-(3-(3-chlorothiophen-2-yl)-2-fluorophenyl)-4-fluoropyrrolidine-2-carboxamide] | < 1000 | 
11 | CC(=O)c1cn(CC(=O)N2C[C@H](F)C[C@H]2C(=O)Nc2cccc(Br)n2)c2cc(O)c(-c3cnc(C)nc3)cc12 [Compound 328, (4R)-1-(2-(3-Acetyl-6-hydroxy-5-(2-methylpyrimidin-5-yl)-1H-indol-1-yl)acetyl)-N-(6-bromopyridin-2-yl)-4-fluoropyrrolidine-2-carboxamide] | < 1000 | 
12 | CC(=O)c1nn(CC(=O)N2CSC(C)(C)[C@H]2C(=O)NCc2cccc(Cl)c2F)c2ccc(-c3cnc(C)nc3)cc12 [Compound 329, (R)-3-(2-(3-acetyl-5-(2-methylpyrimidin-5-yl)-1H-indazol-1-yl)acetyl)-N-(3-chloro-2-fluorobenzyl)-5,5-dimethylthiazolidine-4-carboxamide] | 1000 to 10000 | 
13 | CC(=O)c1nn(CC(=O)N2C[C@H](F)C[C@H]2C(=O)Nc2cccc(OC(F)(F)F)n2)c2ccc(-c3cnc4cc(C)nn4c3)cc12 [Compound 330, (2S,4R)-1-(2-(3-acetyl-5-(2-methylpyrazolo[1,5-a]pyrimidin-6-yl)-1H-indazol-1-yl)acetyl)-4-fluoro-N-(6-(trifluoromethoxy)pyridin-2-yl)pyrrolidine-2-carboxamide] | < 1000 | 
14 | CC(=O)c1cn(CC(=O)N2[C@@H]3C[C@@H]3C[C@H]2C(=O)Nc2cncc(Br)n2)c2ccc(-c3cnc4cc(C)nn4c3)cc12 [Compound 331, (1R,3S,5R)-2-(2-(3-acetyl-5-(2-methylpyrazolo[1,5-a]pyrimidin-6-yl)-1H-indol-1-yl)acetyl)-N-(6-bromopyrazin-2-yl)-2-azabicyclo[3.1.0] hexane-3-carboxamide] | < 1000 | 
15 | CC(=O)c1nn(CC(=O)N2C[C@H](F)C[C@H]2C(=O)Nc2cc(C)cc(Br)n2)c2ccc(-c3cnc4cc(C)nn4c3)cc12 [Compound 332, (2S,4R)-1-(2-(3-acetyl-5-(2-methylpyrazolo[1,5-a]pyrimidin-6-yl)-1H-indazol-1-yl)acetyl)-N-(6-bromo-4-methylpyridin-2-yl)-4-fluoropyrrolidine-2-carboxamide] | < 1000 | 
16 | CC(=O)c1cn(CC(=O)N2C[C@H](F)C[C@H]2C(=O)Nc2cccc(-c3ccccc3Cl)c2F)c2ccc(-c3cnc(O[C@@H]4CO[C@H]5[C@@H]4OC[C@H]5O)nc3)cc12 [Compound 333, (2S,4R)-1-(2-(3-acetyl-5-(2-(((3R,3aR,6R,6aR)-6-hydroxyhexahydrofuro [3,2-b]furan-3-yl)oxy)pyrimidin-5-yl)-1H-indol-1-yl)acetyl)-N-(2′-chloro-2-fluoro-[1,1′-biphenyl]-3-yl)-4-fluoropyrrolidine-2-carboxamide] |  | < 1000
17 | CC(=O)c1cn(CC(=O)N2C[C@H](F)C[C@H]2C(=O)Nc2cccc(Br)n2)c2ccc(-c3cnc(O[C@@H]4CO[C@H]5[C@@H]4OC[C@H]5O)nc3)cc12 [Compound 334, (2S,4R)-1-(2-(3-acetyl-5-(2-(((3R,3aR,6R,6aR)-6-hydroxyhexahydrofuro [3,2-b]furan-3-yl)oxy)pyrimidin-5-yl)-1H-indol-1-yl)acetyl)-N-(6-bromopyridin-2-yl)-4-fluoropyrrolidine-2-carboxamide] |  | < 1000
18 | CO[C@@H]1CO[C@H]2[C@@H]1OC[C@H]2Oc1ncc(-c2ccc3c(c2)c(C(C)=O)cn3CC(=O)N2C[C@H](F)C[C@H]2C(=O)Nc2cccc(-c3ccccc3Cl)c2F)cn1 [Compound 335] |  | < 1000
19 | CO[C@@H]1CO[C@H]2[C@@H]1OC[C@H]2Oc1ncc(-c2ccc3c(c2)c(C(C)=O)cn3CC(=O)N2C[C@H](F)C[C@H]2C(=O)Nc2cccc(Br)n2)cn1 [Compound 337, (2S,4R)-1-(2-(3-acetyl-5-(2-(((3R,3aR,6R,6aR)-6-methoxyhexahydrofuro [3,2-b]furan-3-yl)oxy)pyrimidin-5-yl)-1H-indol-1-yl)acetyl)-N-(6-bromopyridin-2-yl)-4-fluoropyrrolidine-2-carboxamide] |  | < 1000
20 | Cc1ncc(-c2ccc3c(c2)c(CC(N)=O)nn3CC(=O)N2C[C@H](F)C[C@H]2C(=O)Nc2cccc(Br)n2)cn1 [Compound 340, (2S,4R)-1-(2-(3-(2-amino-2-oxoethyl)-5-(2-methylpyrimidin-5-yl)-1H-indazol-1-yl)acetyl)-N-(6-bromopyridin-2-yl)-4-fluoropyrrolidine-2-carboxamide] |  | 1000 to 10000
21 | CC(=O)c1nn(CC(=O)N2C[C@H](F)C[C@H]2C(=O)Nc2cccc(-c3cc(S(N)(=O)=O)ccc3Cl)c2F)c2ccc(-c3cnc(C)nc3)cc12 [Compound 341, (2S,4R)-1-(2-(3-Acetyl-5-(2-methylpyrimidin-5-yl)-1H-indazol-1-yl)acetyl)-N-(2′-chloro-2-fluoro-5′-sulfamoyl-[1,1′-biphenyl]-3-yl)-4-fluoropyrrolidine-2-carboxamide] |  | < 1000
22 | CNS(=O)(=O)c1ccc(Cl)c(-c2cccc(NC(=O)[C@@H]3C[C@@H](F)CN3C(=O)Cn3nc(C(C)=O)c4cc(-c5cnc(C)nc5)ccc43)c2F)c1 [Compound 342, (2S,4R)-1-(2-(3-Acetyl-5-(2-methylpyrimidin-5-yl)-1H-indazol-1-yl)acetyl)-N-(2′-chloro-2-fluoro-5′-(N-methylsulfamoyl)-[1,1′-biphenyl]-3-yl)-4-fluoropyrrolidine-2-carboxamide] |  | < 1000
23 | CC(=O)c1nn(CC(=O)N2C[C@H](F)C[C@H]2C(=O)Nc2cccc(-c3cc(S(=O)(=O)N(C)C)ccc3Cl)c2F)c2ccc(-c3cnc(C)nc3)cc12 [Compound 343, (2S,4R)-1-(2-(3-Acetyl-5-(2-methylpyrimidin-5-yl)-1H-indazol-1-yl)acetyl)-N-(2′-chloro-5′-(N,N-dimethylsulfamoyl)-2-fluoro-[1,1′-biphenyl]-3-yl)-4-fluoropyrrolidine-2-carboxamide] |  | < 1000
24 | CC(=O)c1nn(CC(=O)N2C[C@H](F)C[C@H]2C(=O)Nc2cccc(OC(F)(F)F)n2)c2ccc(-c3cnc(C)nc3)cc12 [Compound 344, (2S,4R)-1-(2-(3-Acetyl-5-(2-methylpyrimidin-5-yl)-1H-indazol-1-yl)acetyl)-4-fluoro-N-(6-(trifluoromethoxy)pyridin-2-yl)pyrrolidine-2-carboxamide] |  | < 1000

— patent publication US10287301B2 (Achillion Pharmaceuticals, Inc., priority 2015, dated 2019)
